Reference: ChEMBL document CHEMBL3407349, “The discovery of Polo-like kinase 4 inhibitors: identification of (1R,2S).2-(3-((E).4-(((cis).2,6-dimethylmorpholino)methyl)styryl). 1H.indazol-6-yl)-5'-methoxyspiro[cyclopropane-1,3'-indolin]-2'-one (CFI-400945) as a potent, orally active antitumor agent” (J Med Chem, 2015)

How the values were obtained:
Cytochrome P450 2D6 = Cytochrome P450 2D6 (Homo sapiens, UniProt P10635); assay: Inhibition of CYP2D6 (unknown origin) by fluorescence assay; format: ADME
[1] = AUC in athymic CD1 nude mouse at 25 mg/kg, po by LC/MS/MS analysis; format: ADME, organism-based; parameters: dose 25 mg/kg, route oral; conditions: plasma
MDA-MB-468 = assay: Growth inhibition of human MDA-MB-468 cells after 5 days by SRB assay; format: functional
Cytochrome P450 1A2 = target: T1, Cytochrome P450 1A2 (Homo sapiens, UniProt P05177); assay: Inhibition of CYP1A2 (unknown origin) by fluorescence assay; format: ADME
T1 sequence (P05177 whole entry): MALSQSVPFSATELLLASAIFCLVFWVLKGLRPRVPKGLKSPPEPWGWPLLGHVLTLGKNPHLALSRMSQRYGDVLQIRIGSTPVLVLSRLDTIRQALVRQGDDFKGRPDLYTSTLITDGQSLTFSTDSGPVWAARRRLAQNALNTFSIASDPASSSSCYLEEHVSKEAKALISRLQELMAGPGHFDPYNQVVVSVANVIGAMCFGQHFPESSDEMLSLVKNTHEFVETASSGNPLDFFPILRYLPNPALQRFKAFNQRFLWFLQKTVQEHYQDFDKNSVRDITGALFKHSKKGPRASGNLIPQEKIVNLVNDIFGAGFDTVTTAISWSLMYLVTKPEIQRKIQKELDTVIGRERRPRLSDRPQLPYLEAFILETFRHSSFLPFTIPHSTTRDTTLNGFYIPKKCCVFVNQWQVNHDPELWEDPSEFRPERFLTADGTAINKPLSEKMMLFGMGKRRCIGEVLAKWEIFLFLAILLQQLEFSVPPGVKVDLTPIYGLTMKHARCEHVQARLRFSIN

[2] = Half life in mouse liver microsomes
HCC1954 = assay: Growth inhibition of human HCC1954 cells after 5 days by SRB assay; format: functional
Cytochrome P450 2C19 = Cytochrome P450 2C19 (Homo sapiens, UniProt P33261); assay: Inhibition of CYP2C19 (unknown origin) by fluorescence assay
[3] = target: T2, Serine/threonine-protein kinase PLK4 (Homo sapiens, UniProt O00444); assay: Inhibition of PLK4 (unknown origin) by ELISA
T2 sequence (O00444 whole entry): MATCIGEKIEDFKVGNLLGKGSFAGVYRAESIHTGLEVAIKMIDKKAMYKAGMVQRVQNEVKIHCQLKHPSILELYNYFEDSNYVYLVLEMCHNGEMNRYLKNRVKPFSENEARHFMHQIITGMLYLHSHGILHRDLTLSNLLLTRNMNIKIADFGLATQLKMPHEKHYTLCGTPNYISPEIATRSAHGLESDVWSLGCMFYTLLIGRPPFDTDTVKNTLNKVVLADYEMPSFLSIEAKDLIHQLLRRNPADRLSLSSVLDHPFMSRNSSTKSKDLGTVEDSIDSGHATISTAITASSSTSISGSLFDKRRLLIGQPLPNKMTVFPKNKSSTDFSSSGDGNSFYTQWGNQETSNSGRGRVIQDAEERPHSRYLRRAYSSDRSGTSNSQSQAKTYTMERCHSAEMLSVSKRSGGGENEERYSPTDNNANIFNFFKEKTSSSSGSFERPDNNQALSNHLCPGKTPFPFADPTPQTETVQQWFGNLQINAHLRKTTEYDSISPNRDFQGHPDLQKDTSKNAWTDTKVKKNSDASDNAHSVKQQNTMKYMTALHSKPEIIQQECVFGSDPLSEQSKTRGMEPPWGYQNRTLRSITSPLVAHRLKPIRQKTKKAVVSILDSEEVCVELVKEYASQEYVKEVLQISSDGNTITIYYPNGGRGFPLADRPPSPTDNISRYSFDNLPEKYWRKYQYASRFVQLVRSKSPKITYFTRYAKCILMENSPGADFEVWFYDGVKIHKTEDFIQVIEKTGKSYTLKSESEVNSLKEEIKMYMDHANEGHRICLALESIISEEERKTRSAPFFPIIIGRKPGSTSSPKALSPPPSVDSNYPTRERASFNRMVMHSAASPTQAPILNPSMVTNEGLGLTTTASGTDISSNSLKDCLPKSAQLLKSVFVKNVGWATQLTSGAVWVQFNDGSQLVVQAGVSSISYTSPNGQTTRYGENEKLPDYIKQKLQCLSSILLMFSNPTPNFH

Cytochrome P450 3A4 [4] = target: T3, Cytochrome P450 3A4 (Homo sapiens, UniProt P08684); assay: Inhibition of CYP3A4 (unknown origin) using BFC as substrate by fluorescence assay
[5] = Half life in rat liver microsomes
MCF7 = assay: Growth inhibition of human MCF7 cells after 5 days by SRB assay; format: functional
[6] = Half life in dog liver microsomes
[7] = Growth inhibition of human HMEC cells after 5 days by SRB assay; format: cell-based; conditions: HMEC cells
[8] = Cmax in athymic CD1 nude mouse at 25 mg/kg, po by LC/MS/MS analysis; format: ADME, organism-based; parameters: dose 25 mg/kg, route oral; conditions: in vivo
[9] = Half life in human liver microsomes
MDA-MB-231 = assay: Growth inhibition of human MDA-MB-231 cells after 5 days by SRB assay; format: functional
Cytochrome P450 2C9 = Cytochrome P450 2C9 (Homo sapiens, UniProt P11712); assay: Inhibition of CYP2C9 (unknown origin) by fluorescence assay
Cytochrome P450 3A4 [10] = target: T3, Cytochrome P450 3A4; assay: Inhibition of CYP3A4 (unknown origin) using DBF as substrate by fluorescence assay
[11] = Half life in beagle dog at 1 mg/kg, iv; format: ADME, organism-based, Canis lupus familiaris; parameters: dose 1 mg/kg, route intravenous; conditions: in vivo
[12] = Oral bioavailability in Sprague-Dawley rat at 5 mg/kg; format: ADME, organism-based; conditions: in vivo
[13] = AUC(infinity) in beagle dog at 5 mg/kg, po; format: ADME, organism-based, Canis lupus familiaris; parameters: time infinity, dose 5 mg/kg, route oral; conditions: plasma
Canis familiaris = assay: Clearance in beagle dog at 1 mg/kg, iv; format: ADME, organism-based, Canis lupus familiaris; parameters: dose 1 mg/kg, route intravenous; conditions: in vivo
[14] = Oral bioavailability in beagle dog at 5 mg/kg; format: ADME, organism-based, Canis lupus familiaris; conditions: in vivo
[15] = AUC(infinity) in Sprague-Dawley rat at 1 mg/kg, iv; format: ADME, organism-based; parameters: time infinity, dose 1 mg/kg, route intravenous; conditions: plasma
[16] = AUC(infinity) in Sprague-Dawley rat at 5 mg/kg, po; format: ADME, organism-based; parameters: dose 5 mg/kg, route oral, time infinity; conditions: plasma
[17] = Half life in Sprague-Dawley rat at 1 mg/kg, iv; format: ADME, organism-based; parameters: dose 1 mg/kg, route intravenous; conditions: in vivo
Rattus norvegicus = assay: Clearance in Sprague-Dawley rat at 1 mg/kg, iv; format: ADME, organism-based; parameters: dose 1 mg/kg, route intravenous; conditions: in vivo
[18] = AUC(infinity) in beagle dog at 1 mg/kg, iv; format: ADME, organism-based, Canis lupus familiaris; parameters: time infinity, dose 1 mg/kg, route intravenous; conditions: plasma
[19] = Homo sapiens, MDA-MB-468, 120 h
[20] = Homo sapiens, MDA-MB-231, 120 h

Cytochrome P450 2C19, sequence (P33261 whole entry): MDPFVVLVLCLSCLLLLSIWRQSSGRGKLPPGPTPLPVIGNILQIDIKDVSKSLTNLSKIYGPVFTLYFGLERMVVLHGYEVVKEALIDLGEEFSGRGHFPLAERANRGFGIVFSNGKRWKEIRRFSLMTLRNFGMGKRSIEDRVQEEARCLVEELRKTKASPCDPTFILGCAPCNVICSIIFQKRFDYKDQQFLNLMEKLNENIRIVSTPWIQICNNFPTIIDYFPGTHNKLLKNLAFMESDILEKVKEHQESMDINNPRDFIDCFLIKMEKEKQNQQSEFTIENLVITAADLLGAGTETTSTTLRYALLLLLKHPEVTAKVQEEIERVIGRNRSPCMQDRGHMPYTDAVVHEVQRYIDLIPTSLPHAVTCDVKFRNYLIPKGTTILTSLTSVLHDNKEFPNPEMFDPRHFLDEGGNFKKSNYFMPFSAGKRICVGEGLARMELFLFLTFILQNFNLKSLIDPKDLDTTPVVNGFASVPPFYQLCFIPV
T3 sequence (P08684 whole entry): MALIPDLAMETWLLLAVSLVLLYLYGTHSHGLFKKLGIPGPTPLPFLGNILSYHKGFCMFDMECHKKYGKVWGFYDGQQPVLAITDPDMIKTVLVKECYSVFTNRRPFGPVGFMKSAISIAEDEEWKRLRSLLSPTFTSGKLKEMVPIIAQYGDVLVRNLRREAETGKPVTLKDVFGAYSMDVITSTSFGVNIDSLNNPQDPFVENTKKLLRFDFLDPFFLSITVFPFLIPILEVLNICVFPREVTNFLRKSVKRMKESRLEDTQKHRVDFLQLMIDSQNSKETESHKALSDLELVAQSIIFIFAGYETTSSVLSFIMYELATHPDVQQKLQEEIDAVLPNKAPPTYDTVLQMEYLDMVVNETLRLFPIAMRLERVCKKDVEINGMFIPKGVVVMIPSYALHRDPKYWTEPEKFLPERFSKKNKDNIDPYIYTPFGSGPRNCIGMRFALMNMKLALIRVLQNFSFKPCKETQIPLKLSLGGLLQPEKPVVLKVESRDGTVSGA
Cytochrome P450 2C9, sequence (P11712 whole entry): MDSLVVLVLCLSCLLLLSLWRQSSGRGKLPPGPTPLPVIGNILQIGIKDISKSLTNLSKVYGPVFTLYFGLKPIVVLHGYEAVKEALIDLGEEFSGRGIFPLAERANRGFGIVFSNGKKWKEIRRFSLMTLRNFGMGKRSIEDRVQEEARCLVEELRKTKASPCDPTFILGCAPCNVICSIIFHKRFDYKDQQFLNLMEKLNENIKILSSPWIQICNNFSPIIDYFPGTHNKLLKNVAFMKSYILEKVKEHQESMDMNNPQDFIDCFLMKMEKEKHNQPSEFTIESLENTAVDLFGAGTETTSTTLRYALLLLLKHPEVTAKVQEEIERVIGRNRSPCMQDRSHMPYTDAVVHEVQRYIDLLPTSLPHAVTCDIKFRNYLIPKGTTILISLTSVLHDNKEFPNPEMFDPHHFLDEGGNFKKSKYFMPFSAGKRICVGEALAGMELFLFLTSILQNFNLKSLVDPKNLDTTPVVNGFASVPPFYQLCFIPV
Cytochrome P450 2D6, sequence (P10635 whole entry): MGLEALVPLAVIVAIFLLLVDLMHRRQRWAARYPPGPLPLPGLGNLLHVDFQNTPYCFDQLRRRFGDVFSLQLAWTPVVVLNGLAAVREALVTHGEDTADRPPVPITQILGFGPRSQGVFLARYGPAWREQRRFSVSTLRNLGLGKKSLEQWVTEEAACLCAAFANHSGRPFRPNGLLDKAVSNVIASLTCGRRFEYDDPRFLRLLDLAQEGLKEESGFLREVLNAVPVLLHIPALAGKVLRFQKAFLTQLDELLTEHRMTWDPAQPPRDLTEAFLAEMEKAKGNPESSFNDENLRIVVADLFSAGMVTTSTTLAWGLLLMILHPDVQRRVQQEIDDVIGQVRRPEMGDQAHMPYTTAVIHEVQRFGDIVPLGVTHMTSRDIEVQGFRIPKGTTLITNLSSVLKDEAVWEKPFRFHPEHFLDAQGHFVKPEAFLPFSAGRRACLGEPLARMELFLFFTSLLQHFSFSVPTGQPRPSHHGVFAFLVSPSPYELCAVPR

Row | SMILES | inhibition (INH) (Cytochrome P450 2D6) | AUC [1] [ng·h/mL] | GI50 (MDA-MB-468; [19]) [nM] | inhibition (INH) (Cytochrome P450 1A2) | GI50 (HCC1954; Homo sapiens, HCC1954, 120 h) [nM] | IC50 (Cytochrome P450 2C19) [nM] | IC50 [3] [nM] | IC50 (Cytochrome P450 3A4 [4]) [nM] | GI50 (MCF7; Homo sapiens, MCF7, 120 h) [nM] | Cmax [8] [ng/mL] | GI50 (MDA-MB-231; [20]) [nM] | IC50 (Cytochrome P450 2C9) [nM] | IC50 (Cytochrome P450 3A4 [10]) [nM] | half-life [11] [min] | half-life ([2]; liver microsomes) [min] | bioavailability [12] [%] | half-life ([5]; liver microsomes) [min] | half-life ([6]; liver microsomes) [min] | half-life ([9]; liver microsomes) [min] | GI50 at 120 h [7] [nM] | further results
1 | COc1ccc2c(c1)[C@]1(C[C@H]1c1ccc3c(/C=C/c4ccc(CN5CCOCC5)cc4)n[nH]c3c1)C(=O)N2 | Not Active | 9500 | – | Not Active | – | 1200 | – | 2400 | – | 3500 | – | 800 | 6400 | 52.2 | 12 | 22 | 8.3 | 9.4 | 41 | > 50000 | GI50 (MDA-MB-468): < 0.1 nM; GI50 (HCC1954): 250 nM; AUC(0-inf) [13]: 1420 ng·h/mL; clearance (Canis familiaris): 41.7 mL/min/kg; GI50 (MCF7): 0.1 nM; bioavailability [14]: 71%; AUC(0-inf) [15]: 250 ng·h/mL; AUC(0-inf) [16]: 272 ng·h/mL; half-life [17]: 66 min; clearance (Rattus norvegicus): 66.7 mL/min/kg; AUC(0-inf) [18]: 402 ng·h/mL; GI50 (MDA-MB-231): < 1 nM
2 | CC(C)N1CCC(Oc2ccc(/C=C/c3n[nH]c4cc([C@@H]5C[C@@]56C(=O)Nc5ccccc56)ccc34)cc2)CC1 | Not Active | 1400 | 5 | Not Active | 7 | 1900 | 1.5 | > 1000 | 67 | 510 | 1600 | 2400 | 1600 | – | 30 | – | > 60 | > 60 | > 60 | 4100 | –
3 | O=C1Nc2ccccc2[C@]12C[C@H]2c1ccc2c(/C=C/c3ccc(CN4CCOCC4)cc3)n[nH]c2c1 | Not Active | 10000 | 4.2 | Not Active | < 1 | 800 | – | 6300 | 800 | 3500 | 5000 | 700 | 2700 | 192 | 15 | 31 | 7.3 | 4.7 | 45 | 50000 | AUC(0-inf) [13]: 250 ng·h/mL; clearance (Canis familiaris): 33.3 mL/min/kg; bioavailability [14]: 9.7%; AUC(0-inf) [15]: 312 ng·h/mL; AUC(0-inf) [16]: 478 ng·h/mL; half-life [17]: 84 min; clearance (Rattus norvegicus): 53.3 mL/min/kg; AUC(0-inf) [18]: 515 ng·h/mL
4 | Cc1ccc2c(c1)[C@]1(C[C@H]1c1ccc3c(/C=C/c4ccc(CN5CCOCC5)cc4)n[nH]c3c1)C(=O)N2 | Not Active | 5500 | 13 | Not Active | < 10 | 1200 | – | – | < 10 | 2100 | 22000 | 1000 | – | 420 | 13 | 28 | 9 | 9.5 | 56 | 9300 | AUC(0-inf) [13]: 1140 ng·h/mL; clearance (Canis familiaris): 23.3 mL/min/kg; bioavailability [14]: 29%; AUC(0-inf) [15]: 285 ng·h/mL; AUC(0-inf) [16]: 410 ng·h/mL; half-life [17]: 96 min; clearance (Rattus norvegicus): 58.3 mL/min/kg; AUC(0-inf) [18]: 795 ng·h/mL

The next lines start with results.

Row | inhibition (INH) (Cytochrome P450 2D6) | AUC [1] [ng·h/mL] | GI50 (MDA-MB-468; [19]) [nM] | inhibition (INH) (Cytochrome P450 1A2) | GI50 (HCC1954; Homo sapiens, HCC1954, 120 h) [nM] | IC50 (Cytochrome P450 2C19) [nM] | IC50 [3] [nM] | IC50 (Cytochrome P450 3A4 [4]) [nM] | GI50 (MCF7; Homo sapiens, MCF7, 120 h) [nM] | Cmax [8] [ng/mL] | GI50 (MDA-MB-231; [20]) [nM] | IC50 (Cytochrome P450 2C9) [nM] | IC50 (Cytochrome P450 3A4 [10]) [nM] | half-life [11] [min] | half-life ([2]; liver microsomes) [min] | bioavailability [12] [%] | half-life ([5]; liver microsomes) [min] | half-life ([6]; liver microsomes) [min] | half-life ([9]; liver microsomes) [min] | SMILES | GI50 at 120 h [7] [nM] | further results
5 | Not Active | 6800 | 29 | Not Active | 15 | 760 | 5.7 | 10000 | 21 | 3400 | 50000 | 440 | > 1000 | – | – | – | – | – | – | COc1ccc2c(c1)[C@]1(C[C@H]1c1ccc3c(/C=C/c4ccc(CN5C[C@@H](C)O[C@@H](C)C5)cc4)n[nH]c3c1)C(=O)N2C | > 30000 | half-life ([2]; microsomes): 10 min; half-life ([5]; microsomes): 18 min; half-life ([6]; microsomes): > 60 min; half-life ([9]; microsomes): > 60 min
6 | Not Active | 16000 | 10 | Not Active | 10 | 900 | 1.5 | 450 | 50 | 3300 | 1000 | 440 | 11000 | – | – | – | – | – | – | COc1ccc2c(c1)[C@]1(C[C@H]1c1ccc3c(/C=C/c4ccc([C@H](C)N5CCOCC5)cc4)n[nH]c3c1)C(=O)N2C | 9600 | half-life ([2]; microsomes): 7.2 min; half-life ([5]; microsomes): 10 min; half-life ([6]; microsomes): 6.8 min; half-life ([9]; microsomes): 53 min
